In ChEMBL document CHEMBL1201862, “PubChem BioAssay data set” (2004):
The source made the active and inactive calls.

Legend:
[1] = reduction of Shn3 3'UTR-driven luciferase in osteoblasts – cell-based, Clone20 osteoblasts, firefly luciferase, cherry-picked, dose response (AID 624132); type: functional;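 further: firefly luciferase luminescence from reporter carrying the Shn3 3'UTR in osteoblasts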
[2] = loss of viability in HepG2 cells – cell-based, CellTiter-Glo, cherry-picked, cytotoxicity control for Shn3 inhibitor project, dose response (AID 624134); type: functional
[3] = non-specific 3'UTR reporter inhibition in Clone20-Shn3RL – cell-based, Renilla luciferase, cherry-picked, counter-screen for Shn3 inhibitor project, dose response (AID 624133); type: functional
Galanin receptor type 3 = target: T1, Galanin receptor type 3 (Homo sapiens, UniProt O60755); assay: Fluorescence-based cell-based primary high throughput dose response assay to identify antagonists of the Galanin Receptor 3 (GalR3).; type: functional
T1 sequence (O60755 whole entry): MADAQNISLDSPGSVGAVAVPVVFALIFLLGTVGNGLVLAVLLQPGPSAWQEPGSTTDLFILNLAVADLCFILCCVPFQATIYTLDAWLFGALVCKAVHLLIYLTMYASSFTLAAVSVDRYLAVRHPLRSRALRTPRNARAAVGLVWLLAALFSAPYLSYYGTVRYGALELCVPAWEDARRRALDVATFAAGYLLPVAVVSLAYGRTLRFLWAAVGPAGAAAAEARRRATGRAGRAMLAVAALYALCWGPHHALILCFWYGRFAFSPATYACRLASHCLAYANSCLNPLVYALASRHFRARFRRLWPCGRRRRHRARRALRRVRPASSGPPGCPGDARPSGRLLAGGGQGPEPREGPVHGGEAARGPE

cells = type: functional, cell-based; conditions: HEK-CNG
[4] = target: COUP transcription factor 2 (Homo sapiens, UniProt P24468); assay: Luminescence-based cell-based high throughput dose response assay to identify inhibitors of COUP-TFII (NR2F2).; type: functional;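 further: HEK293 cells transiently cotransfected with COUP-TFII expression vector and reporter; luciferase reporter luminescence driven by COUP-TFII from the pX2-168 reporter plasmid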
Sequence of COUP transcription factor 2 (P24468 whole entry): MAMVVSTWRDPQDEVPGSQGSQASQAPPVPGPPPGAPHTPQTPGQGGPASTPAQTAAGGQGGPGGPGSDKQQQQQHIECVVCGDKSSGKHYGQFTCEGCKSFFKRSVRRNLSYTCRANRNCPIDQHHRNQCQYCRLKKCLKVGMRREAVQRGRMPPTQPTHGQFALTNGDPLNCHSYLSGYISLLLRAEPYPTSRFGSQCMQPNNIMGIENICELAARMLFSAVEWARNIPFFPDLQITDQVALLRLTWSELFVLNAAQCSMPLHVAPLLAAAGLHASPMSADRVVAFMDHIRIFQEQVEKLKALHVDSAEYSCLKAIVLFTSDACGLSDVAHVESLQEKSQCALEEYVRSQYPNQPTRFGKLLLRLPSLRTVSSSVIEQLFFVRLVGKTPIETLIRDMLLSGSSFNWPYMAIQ

[5] = target: 1-phosphatidylinositol 4,5-bisphosphate phosphodiesterase gamma-1 (Homo sapiens, UniProt P19174); assay: Counterscreen for inhibitors of phospholipase C isozymes (PLC-B3): Fluorescence-based biochemical high throughput dose response assay to identify inhibitors of phospholipase C isozymes (PLC-gamma1).
Sequence of 1-phosphatidylinositol 4,5-bisphosphate phosphodiesterase gamma-1 (P19174 whole entry): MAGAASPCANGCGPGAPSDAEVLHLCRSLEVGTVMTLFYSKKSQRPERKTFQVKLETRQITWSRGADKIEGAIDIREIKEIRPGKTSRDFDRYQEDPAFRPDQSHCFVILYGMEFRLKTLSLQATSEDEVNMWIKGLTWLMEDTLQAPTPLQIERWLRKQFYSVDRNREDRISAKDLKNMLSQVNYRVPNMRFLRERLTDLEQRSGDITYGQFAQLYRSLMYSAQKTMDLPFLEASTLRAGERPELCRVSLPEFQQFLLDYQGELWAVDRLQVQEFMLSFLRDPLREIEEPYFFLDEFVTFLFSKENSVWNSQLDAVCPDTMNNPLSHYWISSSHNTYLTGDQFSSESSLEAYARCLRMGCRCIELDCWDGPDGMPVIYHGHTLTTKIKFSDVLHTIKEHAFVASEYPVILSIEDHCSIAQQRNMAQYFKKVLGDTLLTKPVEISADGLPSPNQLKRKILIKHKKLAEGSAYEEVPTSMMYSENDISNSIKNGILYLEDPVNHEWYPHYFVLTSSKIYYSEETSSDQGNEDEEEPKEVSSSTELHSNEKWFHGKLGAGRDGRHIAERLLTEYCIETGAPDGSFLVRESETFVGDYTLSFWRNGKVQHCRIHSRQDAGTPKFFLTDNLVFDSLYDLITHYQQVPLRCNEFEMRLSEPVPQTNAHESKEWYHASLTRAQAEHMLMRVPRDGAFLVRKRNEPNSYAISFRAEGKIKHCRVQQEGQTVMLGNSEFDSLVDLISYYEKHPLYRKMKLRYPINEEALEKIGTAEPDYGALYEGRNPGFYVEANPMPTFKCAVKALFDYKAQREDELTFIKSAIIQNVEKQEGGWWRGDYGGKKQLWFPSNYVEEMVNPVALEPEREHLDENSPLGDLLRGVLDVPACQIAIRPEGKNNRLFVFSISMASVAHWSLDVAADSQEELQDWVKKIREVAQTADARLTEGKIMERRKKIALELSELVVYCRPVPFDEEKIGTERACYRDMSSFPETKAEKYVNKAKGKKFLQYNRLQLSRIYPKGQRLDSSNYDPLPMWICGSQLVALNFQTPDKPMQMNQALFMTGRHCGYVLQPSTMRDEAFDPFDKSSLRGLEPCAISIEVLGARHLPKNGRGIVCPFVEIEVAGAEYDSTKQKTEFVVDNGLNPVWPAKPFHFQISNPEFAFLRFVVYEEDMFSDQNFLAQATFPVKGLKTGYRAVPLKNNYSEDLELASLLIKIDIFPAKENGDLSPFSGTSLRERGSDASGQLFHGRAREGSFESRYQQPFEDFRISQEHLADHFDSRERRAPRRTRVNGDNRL

[6] = target: 1-phosphatidylinositol 4,5-bisphosphate phosphodiesterase beta-3 (Homo sapiens, UniProt Q01970); assay: Fluorescence-based biochemical high throughput dose response assay to identify inhibitors of phospholipase C isozymes (PLC-B3).
Sequence of 1-phosphatidylinositol 4,5-bisphosphate phosphodiesterase beta-3 (Q01970 whole entry): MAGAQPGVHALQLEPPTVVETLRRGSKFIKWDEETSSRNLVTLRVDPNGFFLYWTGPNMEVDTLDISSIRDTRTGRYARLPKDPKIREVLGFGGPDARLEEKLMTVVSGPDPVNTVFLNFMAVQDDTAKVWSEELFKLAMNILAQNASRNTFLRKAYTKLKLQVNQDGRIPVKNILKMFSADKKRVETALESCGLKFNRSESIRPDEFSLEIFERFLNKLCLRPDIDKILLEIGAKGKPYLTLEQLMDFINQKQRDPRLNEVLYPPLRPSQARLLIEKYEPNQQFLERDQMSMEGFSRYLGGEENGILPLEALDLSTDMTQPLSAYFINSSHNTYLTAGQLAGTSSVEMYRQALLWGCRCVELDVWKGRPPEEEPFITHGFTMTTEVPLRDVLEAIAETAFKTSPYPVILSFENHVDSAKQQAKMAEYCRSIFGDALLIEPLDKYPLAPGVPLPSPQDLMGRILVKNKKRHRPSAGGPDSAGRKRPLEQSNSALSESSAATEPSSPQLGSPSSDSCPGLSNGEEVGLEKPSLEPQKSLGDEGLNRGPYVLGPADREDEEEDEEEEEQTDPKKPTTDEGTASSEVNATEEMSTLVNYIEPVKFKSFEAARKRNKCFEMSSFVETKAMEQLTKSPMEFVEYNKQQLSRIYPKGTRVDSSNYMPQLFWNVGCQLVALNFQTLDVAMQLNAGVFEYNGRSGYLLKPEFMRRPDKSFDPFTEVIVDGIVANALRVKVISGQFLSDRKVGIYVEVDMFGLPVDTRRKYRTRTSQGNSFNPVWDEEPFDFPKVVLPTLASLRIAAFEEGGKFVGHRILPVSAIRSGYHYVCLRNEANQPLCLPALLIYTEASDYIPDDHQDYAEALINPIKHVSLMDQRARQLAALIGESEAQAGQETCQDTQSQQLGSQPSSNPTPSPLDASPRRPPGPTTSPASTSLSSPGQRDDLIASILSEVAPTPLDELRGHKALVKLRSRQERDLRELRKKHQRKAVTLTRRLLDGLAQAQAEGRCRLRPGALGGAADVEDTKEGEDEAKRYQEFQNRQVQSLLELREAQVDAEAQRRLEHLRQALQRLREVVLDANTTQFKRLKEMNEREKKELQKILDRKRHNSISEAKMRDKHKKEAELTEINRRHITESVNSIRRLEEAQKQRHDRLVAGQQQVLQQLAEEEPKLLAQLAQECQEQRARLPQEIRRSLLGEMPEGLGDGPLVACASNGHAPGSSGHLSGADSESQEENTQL

[7] = A549 cell cytotoxicity, dose response, cytotoxicity control, plate reader, cherry-pick, antagonist series (AID 743412); type: functional, cell-based
[8] = toxicity toward HepG2 liver cells – cell-based, plate reader, cherry-pick, antagonist series, cytotoxicity control, dose response (AID 743416); type: functional
[9] = blockers of bursicon-stimulated LGR2 cAMP reporter – cell-based, HEK293, CRE-luciferase reporter, cherry pick, set 2, dose response (AID 743343); type: functional;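 further: transfected cells were stimulated with diluted bursicon conditioned medium after compound addition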
[10] = viability loss in HepG2 hepatoma cells – cell-based, ATP luminescence, cherry-pick, activator set 2, cytotoxicity control, dose response (AID 1053143); type: functional
[11] = blockade of melanocortin 4 receptor signaling – cell-based, plate reader, cherry pick, counter-screen for LGR2 antagonist project, dose response (AID 743444); type: functional;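 further: transfected HEK 293 cells stimulated with alpha-MSH peptide; potency of inhibitors of the alpha-MSH evoked signal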
[12] = viability loss in HEK293 cells – cell-based, plate reader, cherry-picked samples, cytotoxicity control, dose response (AID 743446); type: functional
[13] = Luminescence Cell-Based Dose Response to Identify Activators of 5'UTR Stem-Loop Driven Prion Protein mRNA Translation in H4-C Neuroglioblastoma Cells. [Related pubchem assays: 1829 (Project Summary), 1814 (Primary HTS)]; type: functional
[14] = Luminescence Cell-Based Dose Response HTS to Identify Activators of Luciferase Translation or Activity in H4 […] Cells. [Related pubchem assays: 1829 (Project Summary), 1814 (Primary HTS)]; type: functional
H4 = assay: Luminescence Cell-Based Dose Response HTS to Identify Activators of 5'UTR Stem-Loop Driven Prion Protein mRNA Translation in H4 Neuroglioblastoma Cells. [Related pubchem assays: 1829 (Project Summary), 1814 (Primary HTS)]; type: functional; conditions: Homo sapiens
[15] = Luminescence Cell-Based Dose Response to Identify Activators of Luciferase Translation or Activity in H4-C Neuroglioblastoma Cells. [Related pubchem assays: 1829 (Project Summary), 1814 (Primary HTS)]; type: functional
[16] = Luminescence Cell-Based Dose Confirmation to Identify Activators of 5'UTR Stem-Loop Driven Alpha-Synuclein mRNA Translation in H4 Neuroglioblastoma Cells. [Related pubchem assays: 1829 (Project Summary), 1814 (Primary HTS)]; type: functional
Caspase-3 = target: T2, Caspase-3 (Homo sapiens, UniProt P42574); type: functional;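 further: Dose-response selectivity test against caspase-3 for candidate inhibitors of sentrin-specific proteases (SENPs)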
T2 sequence (P42574 whole entry): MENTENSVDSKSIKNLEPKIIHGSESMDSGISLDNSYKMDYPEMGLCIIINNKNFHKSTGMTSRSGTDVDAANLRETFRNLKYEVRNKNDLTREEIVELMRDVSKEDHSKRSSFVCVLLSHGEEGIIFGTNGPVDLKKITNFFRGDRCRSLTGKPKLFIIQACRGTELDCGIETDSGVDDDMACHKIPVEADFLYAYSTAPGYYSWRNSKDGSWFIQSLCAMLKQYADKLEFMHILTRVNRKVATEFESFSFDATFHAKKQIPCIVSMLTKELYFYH

[17] = target: T3, Sentrin-specific protease 7 (Homo sapiens, UniProt Q9BQF6); type: functional;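 further: Luminescence-based dose-response confirmation of ultra-high-throughput screening hits, measuring inhibition of SENP7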
T3 sequence (Q9BQF6 whole entry): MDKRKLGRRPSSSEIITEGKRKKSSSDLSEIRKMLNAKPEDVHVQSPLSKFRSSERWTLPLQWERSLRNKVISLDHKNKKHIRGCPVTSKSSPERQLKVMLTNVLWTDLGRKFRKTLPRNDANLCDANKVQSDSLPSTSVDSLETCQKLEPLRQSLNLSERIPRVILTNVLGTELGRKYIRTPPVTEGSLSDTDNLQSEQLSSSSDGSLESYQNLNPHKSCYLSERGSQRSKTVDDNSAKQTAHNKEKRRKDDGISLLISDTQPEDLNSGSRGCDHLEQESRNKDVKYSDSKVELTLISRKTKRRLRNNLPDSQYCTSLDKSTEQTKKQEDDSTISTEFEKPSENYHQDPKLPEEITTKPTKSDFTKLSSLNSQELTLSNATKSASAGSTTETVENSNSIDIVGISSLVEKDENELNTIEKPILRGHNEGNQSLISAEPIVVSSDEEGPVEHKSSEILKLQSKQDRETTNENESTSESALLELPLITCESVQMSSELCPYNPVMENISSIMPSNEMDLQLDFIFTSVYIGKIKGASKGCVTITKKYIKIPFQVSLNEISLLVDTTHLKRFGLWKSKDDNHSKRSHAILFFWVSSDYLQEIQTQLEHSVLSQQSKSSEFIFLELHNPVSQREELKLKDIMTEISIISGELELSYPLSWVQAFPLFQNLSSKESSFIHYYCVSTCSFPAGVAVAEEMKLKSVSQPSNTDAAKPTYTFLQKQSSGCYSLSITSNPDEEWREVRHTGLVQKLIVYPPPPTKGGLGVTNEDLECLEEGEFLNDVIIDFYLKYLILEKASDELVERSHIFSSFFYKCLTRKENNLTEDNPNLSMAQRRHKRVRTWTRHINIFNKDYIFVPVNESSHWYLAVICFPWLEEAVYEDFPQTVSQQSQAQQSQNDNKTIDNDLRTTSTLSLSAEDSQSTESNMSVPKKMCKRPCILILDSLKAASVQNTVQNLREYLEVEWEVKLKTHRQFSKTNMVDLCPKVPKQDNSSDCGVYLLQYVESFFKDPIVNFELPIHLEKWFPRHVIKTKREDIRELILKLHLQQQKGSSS

[18] = target: T4, Sentrin-specific protease 6 (Homo sapiens, UniProt Q9GZR1); type: functional;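 further: Luminescence-based dose-response confirmatory assay of SENP6 inhibition, following up an ultra-high-throughput screen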
T4 sequence (Q9GZR1 whole entry): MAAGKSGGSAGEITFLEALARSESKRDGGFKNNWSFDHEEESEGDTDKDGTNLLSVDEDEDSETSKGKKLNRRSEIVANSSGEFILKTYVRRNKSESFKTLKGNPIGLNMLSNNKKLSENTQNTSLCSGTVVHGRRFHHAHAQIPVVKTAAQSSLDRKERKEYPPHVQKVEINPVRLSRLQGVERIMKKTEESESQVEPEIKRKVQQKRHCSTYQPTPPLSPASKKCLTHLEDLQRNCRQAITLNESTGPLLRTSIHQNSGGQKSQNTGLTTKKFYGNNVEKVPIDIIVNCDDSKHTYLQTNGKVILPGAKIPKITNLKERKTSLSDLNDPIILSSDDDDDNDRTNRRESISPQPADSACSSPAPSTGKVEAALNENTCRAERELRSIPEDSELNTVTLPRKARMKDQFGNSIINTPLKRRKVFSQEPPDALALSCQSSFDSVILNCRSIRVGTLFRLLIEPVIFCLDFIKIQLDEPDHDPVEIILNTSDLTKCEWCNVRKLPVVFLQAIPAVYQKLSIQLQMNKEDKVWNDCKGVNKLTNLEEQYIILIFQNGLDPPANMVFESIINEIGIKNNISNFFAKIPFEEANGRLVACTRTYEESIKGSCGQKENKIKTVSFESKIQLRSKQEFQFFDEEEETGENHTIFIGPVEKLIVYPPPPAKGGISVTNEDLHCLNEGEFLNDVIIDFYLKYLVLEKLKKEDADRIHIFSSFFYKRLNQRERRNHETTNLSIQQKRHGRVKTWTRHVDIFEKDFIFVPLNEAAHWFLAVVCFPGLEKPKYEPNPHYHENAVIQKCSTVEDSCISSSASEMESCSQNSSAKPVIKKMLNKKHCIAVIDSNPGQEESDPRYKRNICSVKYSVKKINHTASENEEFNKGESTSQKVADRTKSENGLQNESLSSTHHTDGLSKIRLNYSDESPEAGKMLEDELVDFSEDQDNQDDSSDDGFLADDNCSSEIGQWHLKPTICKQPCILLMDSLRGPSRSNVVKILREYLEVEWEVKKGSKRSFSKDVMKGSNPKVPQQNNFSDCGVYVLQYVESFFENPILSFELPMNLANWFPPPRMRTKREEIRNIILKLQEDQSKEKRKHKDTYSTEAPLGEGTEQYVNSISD

[19] = target: T5, Sentrin-specific protease 8 (Homo sapiens, UniProt Q96LD8); type: functional;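 further: luminescence read-out of SENP8 inhibition, dose-response confirmation following an ultra-high-throughput screen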
T5 sequence (Q96LD8 whole entry): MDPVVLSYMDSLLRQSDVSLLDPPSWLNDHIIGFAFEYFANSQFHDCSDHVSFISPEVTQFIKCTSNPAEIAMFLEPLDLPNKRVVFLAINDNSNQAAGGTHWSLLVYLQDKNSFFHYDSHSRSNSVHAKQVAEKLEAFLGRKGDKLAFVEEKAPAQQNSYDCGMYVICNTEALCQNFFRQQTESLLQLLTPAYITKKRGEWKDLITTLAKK

[20] = target: T6, Oxysterols receptor LXR-beta (Homo sapiens, UniProt P55055); type: functional, cell-based;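 further: agonist activity at LXR measured by a cell-based luminescence readout across a dose range, run as a counterscreen for daf-12 agonists; HEK293 cells with Gal4-LXR fusion and GAL4-driven luciferase reporter; potency for activation of Gal4-LXR reporter so compounds are agonists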
T6 sequence (P55055 whole entry): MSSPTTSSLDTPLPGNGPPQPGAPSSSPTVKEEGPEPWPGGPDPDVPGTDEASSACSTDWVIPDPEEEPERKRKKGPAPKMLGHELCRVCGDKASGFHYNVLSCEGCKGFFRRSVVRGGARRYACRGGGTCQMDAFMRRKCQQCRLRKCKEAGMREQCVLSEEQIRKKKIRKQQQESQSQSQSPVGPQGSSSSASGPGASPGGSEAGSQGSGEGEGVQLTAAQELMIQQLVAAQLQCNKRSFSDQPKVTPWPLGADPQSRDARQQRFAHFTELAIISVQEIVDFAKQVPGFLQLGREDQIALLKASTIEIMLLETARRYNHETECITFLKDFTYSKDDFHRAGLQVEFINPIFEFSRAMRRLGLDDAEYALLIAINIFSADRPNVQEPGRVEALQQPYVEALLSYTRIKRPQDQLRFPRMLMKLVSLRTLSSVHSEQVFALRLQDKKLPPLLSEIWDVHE

Paired box protein Pax-8 = Paired box protein Pax-8 (Homo sapiens, UniProt Q06710); assay: PAX8 transcriptional activity inhibition in RMG-I – RMG-I cells, luciferase, cherry-pick, dose response (AID 687027); type: functional, cell-based;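 further: luciferase reporter driven by Pax8 target thyroperoxidase promoter measured by SteadyGlo luminescence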
Sequence of Paired box protein Pax-8 (Q06710 whole entry): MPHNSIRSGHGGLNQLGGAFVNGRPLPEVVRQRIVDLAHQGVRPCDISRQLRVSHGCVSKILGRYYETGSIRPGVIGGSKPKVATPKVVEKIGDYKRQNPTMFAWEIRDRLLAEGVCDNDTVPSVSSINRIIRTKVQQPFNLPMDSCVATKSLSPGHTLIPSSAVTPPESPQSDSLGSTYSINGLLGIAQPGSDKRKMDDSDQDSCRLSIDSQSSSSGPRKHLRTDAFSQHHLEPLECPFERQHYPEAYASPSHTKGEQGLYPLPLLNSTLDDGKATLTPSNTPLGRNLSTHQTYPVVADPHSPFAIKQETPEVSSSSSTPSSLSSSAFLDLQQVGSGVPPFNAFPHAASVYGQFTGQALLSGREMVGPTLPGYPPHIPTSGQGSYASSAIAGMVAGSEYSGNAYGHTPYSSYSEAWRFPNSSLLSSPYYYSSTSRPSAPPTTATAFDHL

[21] = IGROV1 cell killing – plate reader, dry powder samples, PAX8 inhibitor project, dose response (AID 743043); type: functional, cell-based; conditions: IGROV-1
[22] = OVCAR8 cell viability loss – plate reader, dry powder samples, PAX8 project, dose response (AID 743197); type: functional, cell-based; conditions: OVCAR-8
Nonstructural protein 1 = Nonstructural protein 1 (Influenza A virus, UniProt Q194T2); type: functional, Influenza A virus (A/California/07/2009(H1N1))
Sequence of Nonstructural protein 1 (Q194T2 whole entry): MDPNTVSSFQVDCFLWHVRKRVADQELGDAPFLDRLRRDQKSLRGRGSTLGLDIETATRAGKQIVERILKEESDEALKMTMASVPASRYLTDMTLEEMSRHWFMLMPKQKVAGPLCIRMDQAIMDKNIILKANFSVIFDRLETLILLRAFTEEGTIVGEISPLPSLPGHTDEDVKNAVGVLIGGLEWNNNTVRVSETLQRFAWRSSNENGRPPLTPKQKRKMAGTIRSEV

## Fc1ccc(N=C(S)N2CCCN(c3ccc(C(F)(F)F)cn3)CC2)c(F)c1
[1]
  AC50: 3.71 µM (active)
[2]
  AC50: 1.09 µM (active)
[3]
  AC50: 27 µM (active)
Galanin receptor type 3
  IC50: 0.142 µM (active)
cells
  EC50: > 29.9 µM (inactive)
[4]
  IC50: 3.07 µM (active)

## COCCNCCCOc1ccc(Br)cc1Cl
[5]
  IC50: > 123 µM (inactive)
[6]
  IC50: > 123 µM (inactive)

## c1csc(-c2nc(CN3CCSCC3)cs2)c1
[7]
  AC50: > 52 µM (inactive)
[8]
  AC50: > 52 µM (inactive)
[9]
  AC50: 18.8 µM (active)
[10]
  AC50: 26 µM (active)
[11]
  AC50: 14.8 µM (active)
[12]
  AC50: > 52 µM (inactive)

## Cc1ccc(S(=O)(=O)NC(=NC(S)=Nc2ccccc2)c2ccccc2)cc1
[13]
  EC50: 0.308 µM (active)
[14]
  EC50: < 0.1 µM (inconclusive)
H4
  EC50: < 0.1 µM (active)
[15]
  EC50: 2.54 µM (active)
[16]
  EC50: 0.786 µM (active)
Caspase-3
  IC50: 20.4 µM (active)
[17]
  IC50: 4.8 µM (active)
[18]
  IC50: 14.1 µM (active)
[19]
  IC50: 22.5 µM (active)
[20]
  EC50: > 67.5 µM (inactive)

## C[C@@H]1CN([C@@H](C)CO)C(=O)c2cc(NC(=O)Cc3ccccc3)ccc2O[C@@H](C)CCCCO[C@H]1CN(C)Cc1ccc(C(F)(F)F)cc1
Paired box protein Pax-8
  AC50: 9.1 µM (active)
[21]
  AC50: 44.6 µM (active)
[22]
  AC50: > 70 µM (inactive)

## C[C@H]1CCCCO[C@H](CN(C)C(=O)NC2CCCCC2)[C@@H](C)CN([C@@H](C)CO)C(=O)c2cc(NC(=O)Nc3ccc(C(F)(F)F)cc3)ccc2O1
Paired box protein Pax-8
  AC50: 8.03 µM (active)
[21]
  AC50: 47.5 µM (active)
[22]
  AC50: 67.2 µM (active)

## Cc1ccc(S(=O)(=O)NC2=C(N3CCN(c4ccccc4F)CC3)C(=O)c3ccccc3C2=O)cc1
Nonstructural protein 1
  IC50: 32.5 µM (active)
[5]
  IC50: > 122 µM (inactive)
[6]
  IC50: > 122 µM (inactive)
